Values joined by “and” are separate entries in the source; they are usually repeats but may differ in a detail not shown here. Equal values may be shown once.

The text below walks through data of ChEMBL document CHEMBL5724796, “Tm Shift (DSF) assay results for EUbOPEN Chemogenomics Library” (2024).

The target of test [1] is Fibroblast growth factor receptor 2 (Homo sapiens) (UniProt P21802). The note with it: Compound concentration 20.0 uM.
Another test has as its target T1, Peregrin (Homo sapiens) (UniProt P55201).
T1 sequence (whole entry): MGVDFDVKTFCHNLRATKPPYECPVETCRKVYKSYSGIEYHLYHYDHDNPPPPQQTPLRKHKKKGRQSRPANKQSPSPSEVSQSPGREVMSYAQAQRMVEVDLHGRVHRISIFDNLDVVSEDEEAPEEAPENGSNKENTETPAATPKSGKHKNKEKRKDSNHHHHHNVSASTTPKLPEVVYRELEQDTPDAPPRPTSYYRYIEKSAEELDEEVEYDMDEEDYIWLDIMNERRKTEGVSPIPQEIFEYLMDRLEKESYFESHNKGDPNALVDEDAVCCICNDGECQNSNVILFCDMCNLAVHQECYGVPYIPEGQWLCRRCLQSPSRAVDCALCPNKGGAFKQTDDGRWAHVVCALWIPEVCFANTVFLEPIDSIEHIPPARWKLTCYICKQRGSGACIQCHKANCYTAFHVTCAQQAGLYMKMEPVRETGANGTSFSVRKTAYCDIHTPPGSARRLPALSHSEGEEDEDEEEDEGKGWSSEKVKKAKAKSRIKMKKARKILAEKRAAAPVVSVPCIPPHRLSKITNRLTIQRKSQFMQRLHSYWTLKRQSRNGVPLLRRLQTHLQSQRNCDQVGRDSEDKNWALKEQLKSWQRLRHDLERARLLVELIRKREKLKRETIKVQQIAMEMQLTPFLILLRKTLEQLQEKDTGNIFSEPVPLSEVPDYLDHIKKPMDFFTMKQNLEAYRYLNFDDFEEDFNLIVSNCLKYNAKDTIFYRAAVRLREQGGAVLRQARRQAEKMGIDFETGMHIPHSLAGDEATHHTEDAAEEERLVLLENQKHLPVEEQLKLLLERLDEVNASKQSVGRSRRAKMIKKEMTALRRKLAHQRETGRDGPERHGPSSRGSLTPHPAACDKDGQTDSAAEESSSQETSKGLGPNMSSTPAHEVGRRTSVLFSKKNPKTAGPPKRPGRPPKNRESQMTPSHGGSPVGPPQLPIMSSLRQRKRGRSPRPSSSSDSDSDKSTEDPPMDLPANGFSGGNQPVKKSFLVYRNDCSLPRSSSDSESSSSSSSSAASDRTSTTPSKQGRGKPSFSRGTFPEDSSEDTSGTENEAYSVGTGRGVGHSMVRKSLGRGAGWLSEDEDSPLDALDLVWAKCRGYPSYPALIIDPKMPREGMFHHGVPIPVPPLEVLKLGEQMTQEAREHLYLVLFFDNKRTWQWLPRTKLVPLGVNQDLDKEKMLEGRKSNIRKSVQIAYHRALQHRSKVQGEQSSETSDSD
The note with it: Compound concentration 20.0 uM.

Sequence of Fibroblast growth factor receptor 2 (Homo sapiens) (P21802 22-821 limits assumed): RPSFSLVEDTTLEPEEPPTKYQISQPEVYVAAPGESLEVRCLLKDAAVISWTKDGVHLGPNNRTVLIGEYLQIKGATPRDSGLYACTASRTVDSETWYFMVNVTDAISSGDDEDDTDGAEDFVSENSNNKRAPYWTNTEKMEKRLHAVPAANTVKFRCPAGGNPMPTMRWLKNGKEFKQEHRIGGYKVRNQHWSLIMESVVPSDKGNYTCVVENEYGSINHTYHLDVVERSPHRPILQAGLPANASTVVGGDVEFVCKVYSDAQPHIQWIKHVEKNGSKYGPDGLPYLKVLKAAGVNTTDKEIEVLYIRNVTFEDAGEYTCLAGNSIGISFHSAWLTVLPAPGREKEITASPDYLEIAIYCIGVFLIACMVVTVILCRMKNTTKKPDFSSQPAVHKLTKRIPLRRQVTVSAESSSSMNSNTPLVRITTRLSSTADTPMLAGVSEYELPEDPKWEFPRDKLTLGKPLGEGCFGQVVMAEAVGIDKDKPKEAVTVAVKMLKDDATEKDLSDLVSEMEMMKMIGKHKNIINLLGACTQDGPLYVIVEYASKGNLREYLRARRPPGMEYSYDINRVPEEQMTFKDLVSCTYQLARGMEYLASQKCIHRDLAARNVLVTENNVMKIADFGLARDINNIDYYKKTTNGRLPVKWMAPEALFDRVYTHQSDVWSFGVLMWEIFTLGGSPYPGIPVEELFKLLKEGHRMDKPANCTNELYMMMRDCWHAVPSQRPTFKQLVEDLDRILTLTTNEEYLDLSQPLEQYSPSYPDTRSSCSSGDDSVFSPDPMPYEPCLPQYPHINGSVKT

Usually ΔTm stands for the shift of the melting midpoint relative to a reference. As for `FC(F)(F)Cn1cc(-c2ccncc2)c(-c2ccc(OCc3ccc4ccccc4n3)cc2)n1`, the thermal shift (ΔTm) in test [1] turned out to be 0.04 °C; at Peregrin (Homo sapiens), 0.9 °C.
As to `CC(C)CCn1c(CN2CCN(C(=O)C3CC3)CC2)nc2c1c(=O)n(C)c(=O)n2C`, the ΔTm in test [1] was -0.8 °C; at Peregrin (Homo sapiens) it was 1.75 °C.
On to `CN(Cc1cccc(-c2ccncc2)c1)C(=O)Oc1ccc(-c2ccc(C(N)=O)cc2)cc1`, for which the ΔTm in test [1] is 0.69 °C; at Peregrin (Homo sapiens), 2.09 °C.
On to `CC1(C)c2cccc(C(=O)NO)c2CN1c1cnc(C(F)(F)F)cn1`, for which the ΔTm amounted to 0.83 °C in test [1] and 0.66 °C at Peregrin (Homo sapiens).
Taken in the same sequence, the figures for `Cc1cc(-c2ccc3nc(C4CCOCC4)n(CCOC(F)(F)F)c3c2)cn(C)c1=O` were 0.33 °C and 4.67 °C.
As for `CCc1oc2ccccc2c1C(=O)c1cc(Br)c(O)c(Br)c1`, the shift in melting temperature (ΔTm) is -1.86 °C in test [1] and -11 °C at Peregrin (Homo sapiens).
In the case of `CN(CC[C@@H](Oc1ccc(-c2ccccc2)cc1)c1ccc(F)cc1)CC(=O)O`, the figures for the ΔTm (in test [1]; at Peregrin (Homo sapiens)) were 0.18 °C and -0.36 °C, respectively.
Take `CC(=O)N[C@@H](Cc1ccc(O)cc1)C(=O)N[C@H](C(=O)N[C@@H](C)C(=O)N[C@@H](CC(=O)O)C(=O)CCl)C(C)C`: the ΔTm in test [1] was 0.63 °C; at Peregrin (Homo sapiens) it was -1.75 °C.
Taken in the same sequence, the figures for `C[C@]12CC[C@@H]3c4ccc(O)cc4C[C@@H](CCCCCCCCC[S+]([O-])CCCC(F)(F)C(F)(F)F)[C@H]3[C@@H]1CC[C@@H]2O` (some centres not stated) were -3.24 °C and 0 °C.
Taken in the same sequence, the figures for `Nc1nc(C(F)(F)F)nc2c1nnn2C[C@H]1CN(Cc2nccs2)CCO1` were 0.48 °C and 1.22 °C.
As for `CCOc1ccc(Cc2cc([C@@H]3O[C@H](CO)[C@@H](O)[C@H](O)[C@H]3O)ccc2Cl)cc1`, the ΔTm in test [1] was 0.15 °C; at Peregrin (Homo sapiens) it was -0.19 °C.
Taken in the same sequence, the figures for `CC(=O)N[C@@H](Cc1ccc(O)cc1)C(=O)N[C@H](C(=O)N[C@@H](C)C(=O)N[C@@H](CC(=O)O)C(=O)COC(=O)c1c(C)cccc1C)C(C)C` were 0.82 °C and -1.58 °C.
Taken in the same sequence, the figures for `C=Cc1cc(C(=O)Nc2ccc(C(=N)N)cc2)c(-c2ccc(C(=O)NCC3CC3)nc2C(=O)O)cc1OC` were 0.02 °C and 2.91 °C.
With `CC1=NN(c2ccc(C(=O)O)cc2)C(=O)/C1=C/c1ccc(-c2cc(C)c(C)cc2[N+](=O)[O-])o1`, the figures for the ΔTm (in test [1]; on Peregrin (Homo sapiens)) were 0.86 °C and -1.58 °C, respectively.
Taken in the same sequence, the figures for `O=C(NO)c1ccc(CN(c2cnccn2)c2cnccn2)cc1` were -0.14 °C and -0.86 °C.
Regarding `CC#C[C@]1(O)CC[C@H]2[C@@H]3CCC4=CC(=O)CCC4=C3[C@@H](c3ccc(N(C)C)cc3)C[C@@]21C`, the ΔTm in test [1] was 0.14 °C; at Peregrin (Homo sapiens), -2.63 °C.
For `CCOc1ccc(Cc2cc([C@]34OC[C@](CO)(O3)[C@@H](O)[C@H](O)[C@H]4O)ccc2Cl)cc1`, the values for the ΔTm (in test [1]; on Peregrin (Homo sapiens)) were 0.47 °C and 0.95 °C, respectively.
Taken in the same sequence, the figures for `CCOC(=O)c1ccc(-c2ccc(OC(=O)N(C)Cc3cccc(-c4ccncc4)c3)cc2)cc1` were -0.28 °C and 3.12 °C.
`Cn1cc(-c2ccncc2)c(-c2ccc(OCc3ccc4ccccc4n3)cc2)n1`: the ΔTm in test [1] turned out to be 0.48 °C; at Peregrin (Homo sapiens), 0.25 °C.
Take `O=c1[nH]c(CS[C@H]2CC[C@H](O)CC2)nc2cc(OCC3CC3)cc(F)c12`: the ΔTm in test [1] was -0.27 °C; at Peregrin (Homo sapiens), -0.24 °C.
Taken in the same sequence, the figures for `Cc1noc(C)c1-c1cc(Cl)c(Nc2ccccc2C(=O)O)c(Cl)c1` were 0.17 °C and -0.15 °C.
Take `CCC[C@H]1CNCc2c1[nH]c(=O)c(C#N)c2N1CCC2(CC1)CC2`: the values for the ΔTm (in test [1]; at Peregrin (Homo sapiens)) were 0.92 °C and -0.83 °C, respectively.
On to `COc1c(CN)cc(CN)cc1OCCCN1Cc2ccccc2C1`, for which the ΔTm in test [1] came to 0.36 °C; at Peregrin (Homo sapiens), 0.41 °C.
Taken in the same sequence, the figures for `Cc1cc2cc(NS(=O)(=O)c3ccc(C#N)cc3)ccc2n(C)c1=O` were 0.4 °C and 8.89 °C.
`O=C(C1CC1)N1CC[C@@H](Cc2n[nH]c(=O)n2-c2ccc(-c3ccc4occc4c3)cc2)C1`: the ΔTm is 0.63 °C and -0.68 °C in test [1]; -1.32 °C and 0.92 °C on Peregrin (Homo sapiens).
In the case of `COc1cc2c(cc1OC)[C@H]1C[C@@H](OC(=O)[C@@H](N)C(C)C)[C@H](CC(C)C)CN1CC2`, the ΔTm in test [1] is 0.33 °C; at Peregrin (Homo sapiens), -1.11 °C.
Turning to `C[C@@H]1O[C@@H](CC(=O)O)CC2=C1C(=O)c1c(O)cccc1C2=O`, the figures for the shift in melting temperature (ΔTm) (in test [1]; at Peregrin (Homo sapiens)) were -0.89 °C and 0.11 °C, respectively.
Taken in the same sequence, the figures for `CC(=O)N[C@@H](CC(=O)O)C(=O)N[C@@H](CCC(=O)O)C(=O)N[C@H](C(=O)N[C@@H](CC(=O)O)C(=O)CCl)C(C)C` were 0.6 °C and -1.75 °C.
Turning to `CC(c1cccc2ccccc12)n1cnc2c(=O)[nH]c(Cc3ccccc3)nc21` (configuration not stated), the ΔTm in test [1] was -1.64 °C; at Peregrin (Homo sapiens), -0.65 °C.
Taken in the same sequence, the figures for `COC(=O)C[C@@H]1N=C(c2ccc(Cl)cc2)c2c(sc(C)c2C)-n2c(C)nnc21` were 0.53 °C and -0.95 °C.
On to `CNc1nccc(CN(CC2CCNCC2)S(=O)(=O)c2ccc(S(=O)(=O)N(Cc3ccc(Cl)cc3)C3CCCC3)cc2)n1`, for which the ΔTm in test [1] is -0.24 °C; on Peregrin (Homo sapiens), 1.3 °C.
For `CN1[C@@H]2CC[C@H]1C[C@@H](OC(c1ccc(F)cc1)c1ccc(F)cc1)C2`, the thermal shift (ΔTm) is -0.72 °C in test [1] and -0.08 °C at Peregrin (Homo sapiens).
As to `C[C@]1(c2nc3c(C(N)=O)cccc3[nH]2)CCCN1`, the figures for the ΔTm (in test [1]; at Peregrin (Homo sapiens)) were -0.4 °C and 1.27 °C, respectively.
Taken in the same sequence, the figures for `O=C(O)CCNc1cc(N2CCc3ccccc3CC2)nc(-c2cccnc2)n1` were 0.9 °C and -1.01 °C.
Taken in the same sequence, the figures for `O=C(c1cc(Cc2n[nH]c(=O)c3ccccc23)ccc1F)N1CC(CNC2CC2)C1` were -0.3 °C and -0.32 °C.
Taken in the same sequence, the figures for `CNC[C@@H](O)COc1ccc(Cl)c(-c2nc(-c3c(C)noc3C)c(C)c(N3CC4(CCN(C(=O)OC)CC4)C3)n2)c1` were 0.49 °C and -1.65 °C.
On to `CCCCCCNC(=O)n1cc(Cl)c(=O)n(C(=O)OCC(C)C)c1=O`, for which the ΔTm worked out at 0.1 °C in test [1] and 0.68 °C on Peregrin (Homo sapiens).
Taken in the same sequence, the figures for `CCCCNc1cc(C(=O)O)cc(S(N)(=O)=O)c1Oc1ccccc1` were -0.15 °C and 0.81 °C.
With `CCCC1O[C@@H]2C[C@H]3[C@@H]4CCC5=CC(=O)C=C[C@]5(C)[C@H]4[C@@H](O)C[C@]3(C)[C@]2(C(=O)CO)O1` (some centres not stated), the ΔTm is -0.77 °C in test [1] and -1.04 °C at Peregrin (Homo sapiens).
As for `O=C(CCCCCCNC(=O)c1cnc(N(c2ccccc2)c2ccccc2)nc1)NO`, the ΔTm is -0.22 °C in test [1] and -1.39 °C on Peregrin (Homo sapiens).
Taken in the same sequence, the figures for `CC(=O)N[C@@H](Cc1ccc(O)cc1)C(=O)N[C@H](C(=O)N[C@@H](C)C(=O)N[C@H](C=O)CC(=O)O)C(C)C` were 0.54 °C and -1.25 °C.
Turning to `O=[N+]([O-])c1c(Nc2cc(F)cc(Cl)c2)ccc2nonc12`, the ΔTm in test [1] is -0.15 °C; at Peregrin (Homo sapiens), 0.04 °C.
Taken in the same sequence, the figures for `O=c1[nH][nH]c(=O)c2cc(OCc3ccsc3)ccc12` were 0.19 °C and 3.18 °C.
Taken in the same sequence, the figures for `CS(=O)(=O)n1cc2c(n1)CN([C@H]1CO[C@H](c3cc(F)ccc3F)[C@@H](N)C1)C2` were -0.38 °C and 1.17 °C.
Taken in the same sequence, the figures for `Cc1ncccc1-c1cnc(NCc2c(F)ccc3c2CCO3)n2cnnc12` were -0.09 °C and -0.54 °C.
Consider `CC(=O)Nc1ccc(C(=O)Nc2ccc(F)cc2N)cc1`, for which the ΔTm in test [1] is 0.76 °C; on Peregrin (Homo sapiens), 1.03 °C.
Taken in the same sequence, the figures for `N#Cc1cc(F)cc(Oc2ccc3c(c2C(F)F)[C@@H](O)C(F)(F)S3(=O)=O)c1` were -0.59 °C and 2.23 °C.
Taken in the same sequence, the figures for `O=C(O)/C(S)=C/c1c[nH]c2ccc(F)cc12` were 0.66 °C and -0.77 °C.
Taken in the same sequence, the figures for `CC(C)Cn1c(=O)n(C)c(=O)c2c(C(=O)N3CC[C@@H](O)C3)c(Cc3ccnc4ccccc34)sc21` were 0.61 °C and 0.74 °C.
Regarding `Cc1cc(-c2ccccc2)cc(C(=O)NNS(=O)(=O)c2ccccc2)c1F`, the ΔTm in test [1] was 0 °C; at Peregrin (Homo sapiens) it was -1.3 °C.
Taken in the same sequence, the figures for `CCNC(=O)c1noc(-c2cc(C(C)C)c(O)cc2O)c1-c1ccc(CN2CCOCC2)cc1` were 0.62 °C and -1.1 °C.
